Test results: US12194024B2, “Pharmaceutical composition of MDM2 inhibitor and use thereof for preventing and/or treating disease” (ASCENTAGE PHARMA (SUZHOU) CO., LTD., priority 2019, dated 2025)

Columns and labels:
MOLM-13 = assay: CellTiter-Glo (CTG) cell proliferation experiment; format: cell-based; settings: Homo sapiens, TP53 wt, FLT3-ITD, 72 hours, read-out: IC50 values, nM (Mean ± SD, n = 2 or 3)
MV-4-11 = assay: CellTiter-Glo (CTG) cell proliferation experiment; format: cell-based; settings: Homo sapiens, MV4-11, TP53 wt, FLT3-ITD, 72 hours, read-out: IC50 values, nM (Mean ± SD, n = 2 or 3)
HL-60 = assay: CellTiter-Glo (CTG) cell proliferation experiment; format: cell-based; settings: Homo sapiens, TP53 Del, 72 hours, read-out: IC50 values, nM (Mean ± SD, n = 2 or 3)
SKM-1 = assay: CellTiter-Glo (CTG) cell proliferation experiment; format: cell-based; settings: Homo sapiens, TP53 mut, 72 hours, read-out: IC50 values, nM (Mean ± SD, n = 2 or 3)
MOLM-13 cells = assay: Annexin V-FITC/PI apoptosis by flow cytometer; format: cell-based, human; settings: 48 hours
Source text: The activation of P53 signaling pathway can induce apoptosis, cycle arrest, or senility of cells. […] Therefore, Annexin V-PI fluorescence probe and flow cytometer are used for analyzing the apoptosis of MOML-13 cells after being treated with compound 2 alone or in combination with Decitabine, Azacitidine or Cytarabine (Ara-C).

[1] = tested on: human MOLM-13 (AML) xenograft tumor; assay: Systemic MOLM-13 AML mouse xenograft model; format: in vivo, NOD SCID mice
Source text: The comparison among three or more groups uses one-way ANOVA. If the F value has a significant difference, multiple comparisons should be carried out after the ANOVA analysis. All data analysis uses SPSS 18.0. Prism (the sixth version) is used for graphing. Attune N×T flow cytometer (Thermo Fisher Scientific Inc.) is used for analyzing tumor infiltrating lymphocytes. Data acquisition and analysis use Analyst Software 1.6.3 work station (AB sciex, Ontario, Canada). For MOLM-13 systemic model, the death date of the last mouse is used for analyzing the median total survival and generating the Kaplan-Meier curve. Logarithmic rank test and Bonferroni multiple test are used for comparing the survival curves of different treatment groups.
For systemic AML model, six- to eight-week-old female NOD SCID mice are pretreated with cyclophosphamide (150 mg/kg, intraperitoneally) continuously for two days. Then the MOLM-13 systemic AML xenograft model is established by inoculating 1×10^7 cells into the caudal vein intravenously.
For systemic AML model, the six- to eight-week-old female NOD SCID mice are pretreated with cyclophosphamide (150 mg/kg, intraperitoneally) continuously for two days. Then the MOLM-13 systemic AML xenograft model is established by inoculating 1×10^7 cells into the caudal vein intravenously. Cells grow 3 days, then are randomly divided into groups for treatment of a single drug or drugs in combination using a carrier, compound 2 (50 mg/kg, is taken orally each day for 7 days), and Aza (1.5 mg/kg, intravenous injection each day for 7 days). In the treatment process and after the treatment is completed, the mice are monitored for the occurrence of hind leg paresis (HLP) or the abdominal swelling caused by disease progression, and a body weight loss >20%.
A systemic MOLM-13 mouse xenograft model is established, and the anti-leukemia effect of compound 2 following the administration regimen of 80 mg/kg dosage, orally (po), and once every two days (q2d) is evaluated in the model (corresponding to the number 57 regimen in table 7). The experiment has two groups, and 15 animals in each group, in one group, 5 animals are used for the analysis of the proportion of CD45+ AML cells, and the remaining 10 animals are used for recording the living condition of the mice. 18 days after the cell inoculation, according to the experimental regimen, 5 animals are selected randomly from each group, bone marrow and spleen are collected, the proportion of human CD45+ AML cells in bone marrow and spleen is analyzed using flow cytometry to evaluate the disease burden of animals.
Systemic tumor model is established by inoculating MOLM-13 tumor cells through caudal vein, the administration starts on the third day after the cell inoculation, and the day of the administration is defined as the first day. Compound 2 is administered following 30 mg/kg, q2d regimens for 21 days. Azacitidine is administered following 1.5 mg/kg, qd regimens for seven days (corresponding to the number 81 regimen in table 7). […]

[2] = tested on: dimethylbenzanthracene-induced rat myelodysplastic syndrome (MDS); assay: Dimethylbenzanthracene-induced rat myelodysplastic syndrome (MDS) model; format: in vivo, SD rat; settings: p.o., q2d×21 d; for average WBCB value of bone marrow: MDS model group 16.89±2.75; for average PLT value of bone marrow: MDS model group 52±2.49
Protocol: Multiple human-derived rat MDS model is used for evaluating the in vivo anti-tumor effect of compound 2 alone.
The rat myelodysplastic syndrome (MDS) model is constructed using a chemical mutagenic agent dimethylbenzanthracene (DMBA). in the rat MDS model, the changes of myelogram and hemogram are similar to that of human myelodysplastic syndromes, and it is confirmed that it can be used for the anti-MDS effect study of drugs. DMBA is administered at 50 mg/kg, i.v. Following the once per week regimen for 4 weeks totally to establish the rat MDS model. One week after the end of DMBA administration (day 28), peripheral blood is collected from the caudal vein for routine blood test to determine whether the model is established successfully.
The animals are randomly divided into groups according to the PLT level on day 28, wherein a vehicle control group (Vehicle), two dosage groups of compound 2 (10 mg/kg) and compound 2 (30 mg/kg) (corresponding to the number 23 regimen in table 3), and healthy control group (naive) are totally set, each group has 5 animals.
Compound 2 is administered following 10 mg/kg or 30 mg/kg, p.o., q2d×21 d regimens. After the administration, the peripheral blood and bone marrow cells from each group of animals for routine blood analysis.

[3] = 80 mg/kg, p.o., q2d × 3 w, versus vehicle
[4] = 80 mg/kg, po, q2d, 18 days after cell inoculation

## CCN1[C@@H](C(=O)NC23CCC(C(=O)O)(CC2)CC3)[C@H](c2cccc(Cl)c2F)[C@]2(C(=O)Nc3cc(Cl)ccc32)C12CCCCC2 [Compound 2]
MOLM-13
  IC50: 26.8 ± 4.9 nM
MV-4-11
  IC50: 166 ± 42.4 nM
HL-60
  IC50: 2560 ± 582 nM
SKM-1
  IC50: 8950 ± 570 nM
MOLM-13 cells; 40 nM
  MOLM-13 cells being apoptotic (Annexin V+ cells): about 31.0%
MOLM-13 cells; 110 nM
  MOLM-13 cells being apoptotic (Annexin V+ cells): ~55.1%
MOLM-13 cells; 1000 nM
  MOLM-13 cells being apoptotic (Annexin V+ cells): ~96.8%
[1]; 80 mg/kg, p.o., q2d × 3 w, vehicle 18.5 days
  Median survival: 37.0 days
[1]; [3]
  Prolonged days of survival: 18.5 days
  prolongation of median survival: 100%
[1]; [4]
  proportion of human CD45+ AML cells in bone marrow: less than 0.1%
  proportion of human CD45+ AML cells in spleen: less than 0.1%
[1]; Compound 2 30 mg/kg q2d 21 days, Azacitidine 1.5 mg/kg qd seven days, vehicle 16 days
  Median survival: 24 days
[1]; Compound 2 30 mg/kg q2d 21 days, Azacitidine 1.5 mg/kg qd seven days, versus vehicle
  Prolonged survival: 8 days
[1]; compound 2 alone, human MOLM-13 systemic xenograft
  minimum effective dosage: 20 mg/kg
[2]; 10 mg/kg
  average WBCB value of bone marrow: 47.5±10.13 cells/μl
  average PLT value of bone marrow: 116±9.35 cells/μl
[2]; 30 mg/kg
  average WBCB value of bone marrow: 62.53±13.08 cells/μl
  average PLT value of bone marrow: 124.2±23.8 cells/μl
